Format in all cases: functional, cell-based
The target in series [1] is T1, Solute carrier organic anion transporter family member 1B1 (Homo sapiens, UniProt Q9Y6L6).
T1 sequence (Q9Y6L6 whole entry): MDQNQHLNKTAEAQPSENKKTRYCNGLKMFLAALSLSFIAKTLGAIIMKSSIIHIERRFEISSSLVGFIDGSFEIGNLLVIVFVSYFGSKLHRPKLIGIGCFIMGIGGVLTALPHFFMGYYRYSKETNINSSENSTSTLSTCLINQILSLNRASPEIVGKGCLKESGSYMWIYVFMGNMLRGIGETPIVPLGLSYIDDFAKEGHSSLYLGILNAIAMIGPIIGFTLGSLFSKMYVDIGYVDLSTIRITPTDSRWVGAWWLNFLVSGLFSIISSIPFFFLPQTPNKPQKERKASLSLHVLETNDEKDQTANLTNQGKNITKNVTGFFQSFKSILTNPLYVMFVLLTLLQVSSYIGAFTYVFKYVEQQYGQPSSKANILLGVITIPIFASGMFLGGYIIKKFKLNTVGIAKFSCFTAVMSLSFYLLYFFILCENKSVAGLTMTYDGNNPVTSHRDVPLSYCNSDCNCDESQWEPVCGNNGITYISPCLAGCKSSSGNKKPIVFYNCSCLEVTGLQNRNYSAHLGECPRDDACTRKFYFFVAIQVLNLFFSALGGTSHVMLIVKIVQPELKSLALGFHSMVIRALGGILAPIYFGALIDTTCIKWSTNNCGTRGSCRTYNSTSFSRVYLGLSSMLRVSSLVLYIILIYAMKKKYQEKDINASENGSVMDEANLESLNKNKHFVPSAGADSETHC
Description: TP_TRANSPORTER: inhibition of E217betaG uptake (E217betaG: 0.5 uM, Nelfinavir: 10 uM) in OATP-C-expressing HeLa cells.

Series [2] has as its target T1, Solute carrier organic anion transporter family member 1B1. The series is described as follows: TP_TRANSPORTER: inhibition of E217betaG uptake (E217betaG: 0.5 uM, Hyperforin: 10 uM) in OATP-C-expressing HeLa cells.
The target is the same in series [3]. The series is described as follows: TP_TRANSPORTER: inhibition of E217betaG uptake (E217betaG: 0.5 uM, Saquinavir: 100 uM) in OATP-C-expressing HeLa cells.
Series [4] shares this target. Description: TP_TRANSPORTER: inhibition of E217betaG uptake (E217betaG: 0.5 uM, Rifampicin: 10 uM) in OATP-C-expressing HeLa cells.
Series [5] has the same target. The series is described as follows: TP_TRANSPORTER: inhibition of E217betaG uptake (E217betaG: 0.5 uM, BSP: 10 uM) in OATP-C-expressing HeLa cells.
The target is the same in series [6]. Description: TP_TRANSPORTER: inhibition of E217betaG uptake (E217betaG: 0.5 uM, Indinavir: 10 uM) in OATP-C-expressing HeLa cells.
Substrate in series [7]: CO[C@H]1/C=C/O[C@@]2(C)Oc3c(C)c(O)c4c(O)c(c(/C=N/N5CCN(C)CC5)c(O)c4c3C2=O)NC(=O)/C(C)=C\C=C\[C@H](C)[C@H](O)[C@@H](C)[C@@H](O)[C@@H](C)[C@H](OC(C)=O)[C@@H]1C
Description: TP_TRANSPORTER: uptake in OATP-C-expressing HeLa cells.

As to `Cc1c(O)cccc1C(=O)N[C@@H](CSc1ccccc1)[C@H](O)CN1C[C@H]2CCCC[C@H]2C[C@H]1C(=O)NC(C)(C)C`, the Activity entry in series [1] was “inhibitor [(at a rough estimate) 15 % of control]”. Turning to `CC(C)=CCC[C@]1(C)[C@@H](CC=C(C)C)C[C@]2(CC=C(C)C)C(=O)C(CC=C(C)C)=C(O)[C@@]1(C(=O)C(C)C)C2=O`, the Activity entry in series [2] is “inhibitor [(at a rough estimate) 10 % of control]”. Regarding `CC(C)(C)NC(=O)[C@@H]1C[C@@H]2CCCC[C@@H]2CN1C[C@@H](O)[C@H](Cc1ccccc1)NC(=O)[C@H](CC(N)=O)NC(=O)c1ccc2ccccc2n1`, the Activity result in series [3] is “inhibitor [(at a rough estimate) 10 % of control]”.

With `CO[C@H]1/C=C/O[C@@]2(C)Oc3c(C)c(O)c4c(O)c(c(/C=N/N5CCN(C)CC5)c(O)c4c3C2=O)NC(=O)/C(C)=C\C=C\[C@H](C)[C@H](O)[C@@H](C)[C@@H](O)[C@@H](C)[C@H](OC(C)=O)[C@@H]1C` [RIFAMPIN], the Activity result in series [4] was “inhibitor [(at a rough estimate) 10 % of control]”.

`O=C1OC(c2ccc(O)c(S(=O)(=O)[O-])c2)(c2ccc(O)c(S(=O)(=O)[O-])c2)c2c(Br)c(Br)c(Br)c(Br)c21.[Na+].[Na+]` [SULFOBROMOPHTHALEIN SODIUM]: in series [5], the Activity entry is “inhibitor [(at a rough estimate) <5 % of control]”. Take `CC(C)(C)NC(=O)[C@@H]1CN(Cc2cccnc2)CCN1C[C@@H](O)C[C@@H](Cc1ccccc1)C(=O)N[C@H]1c2ccccc2C[C@H]1O.O`: the Activity entry in series [6] was “inhibitor [(at a rough estimate) 35 % of control]”.

B1: Solute carrier organic anion transporter family member 1B1 (Homo sapiens) (protein)
chain: T1 sequence (Q9Y6L6 whole entry)
The term Km denotes the substrate concentration at which the rate is half of its maximum. For B1, the Michaelis-Menten constant (Km) in series [7] stood at 1.5 µM.
